From patent US20060019972A1, “Methods of treating cancer by inhibiting histone gene expression” (California Institute of Technology, priority 2004, published 2006)
Entries after “also recorded” stand apart in the source; their conditions may differ. Where two headings read alike, the source gives them in different places.

What was measured:
[1] = tested on: SW620 colon carcinoma cells; test: Cell morphology change of SW620 cells (phase contrast microscopy); format: cell-based, human; settings: for Cell morphology change: SW620 cells, 0.5 μM
Description: (§1) Chemotherapeutic molecules, such as DNA alkylators, topoisomerase inhibitors or histone deacetylase inhibitors, alter the morphology and growth characteristics of cancer cells in culture. […] Cells were transfected with 25-100 nM siRNA using the Silencer™ siRNA Transfection Kit (Ambion, Inc.). Cell growth and morphology change were evaluated 72 or 96 hr after transfection by counting cells in a hemocytometer, and by visually inspecting cells in a phase contrast microscope.

[2] = tested on: SW620 colon carcinoma cells; test: Growth arrest / cell counts of SW620 cells; format: cell-based, human; settings: for Growth arrest: SW620 cells, based on cell counts, 0.5 μM
Description: as §1

[3] = tested on: histone H4c mRNA in SW620 cells; test: Real-time quantitative RT-PCR of H4c mRNA; format: cell-based, human
Description: (§2) Quantitative real-time RT-PCR was performed using QuantiTect™ SYBR® Green RT-PCR (Qiagen) as described. […] Temperature cycling and detection of the SYBR® Green emission was performed with a Cepheid SmartCycler® system. Statistical analysis was performed on three independent quantitative RT-PCR experiments for each RNA sample.

v-Myb = test: qRT-PCR of v-Myb expression; format: cell-based
SW620 cells [4] = test: Nuclear structure, Hoechst staining and fluorescence microscopy; settings: polyamide 0.5 μM for 72 hours or siRNA transfection
[5] = tested on: human histone H4c gene (radiolabeled PCR product); format: biochemical
[6] = tested on: SW620 colon carcinoma cells
SW620 cells [7] = test: Affymetrix U133A microarray analysis of genomic transcription; format: cell-based, human; settings: 0.5 μM, 72 hr
Description: Total RNA from SW620 cells from four pooled culture wells from triplicate experiments was isolated using a Qiagen RNeasy™ Midi kit according to the manufacturer's instructions. […]. Microarray experiments were performed at the DNA Array Core Facility of The Scripps Research Institute using Affymetrix Genechip® Human Genome U133A chips. Data were analyzed using Affymetrix MicroArray® Suite (MAS 5.0) software. RMA values for probe sets were analyzed using Significance Analysis of Microarrays (SAM) 1.21 software (Stanford University).
The effects of polyamide treatment on genomic transcription were monitored by DNA microarray analysis using Affymetrix high-density U133A arrays, which contain oligonucleotides representing approximately 18,000 human genes. […]. Total RNA was isolated, converted into fluorescent cRNA and hybridized to the oligonucleotide microarrays. […]

SW620 cells [8] = format: cell-based, human; settings: SW620 cells pre-treated, grown without polyamide up to two weeks
Description: Soft agar assays were performed in 6-well culture dishes using SeaPlaque low-melting temperature agarose (Cambrex Bio Science Rocklarid, Inc.). The cell growth medium was supplemented with 20% fetal bovine serum. Cells were treated for 5 days with or without polyamide, harvested by trypsin treatment, and counted using a hemocytometer. […] Cells were gently mixed by pipetting and quickly transferred to the culture dish containing a thin layer (0.5 ml) of solidified 0.5% agarose in medium. Cultures were incubated for 1-2 weeks prior to visualization by microscopy.
Equal numbers of untreated and polyamide-treated cells were inoculated into soft agar (without polyamide), and grown for up to two weeks.

K562 [9] = test: Growth inhibition; format: cell-based, human
K562 [10] = test: G2/M cell cycle arrest by FACS analysis; format: cell-based, human
H4c mRNA in K562 = format: cell-based, human
Description: as §2

[11] = SW620, 25-100 nM siRNA, 72 or 96 hr

5′-GGGCAUUACAAAACCGGCUtt-3′ [HIST1H4C-1]
cell morphology change after siRNA transfection [1, 11]: caused a morphological change
cell number / growth after siRNA transfection [2, 11]: decreased
reduction in cell number relative to untreated cells ([2]; SW620, after 3 days): 73 (+1-5) %
Relative cell number ([2]; SW620, siRNA transfection, untreated = 100%): 37%
down regulation of H4c mRNA compared to scrambled sequence siRNA ([3]; SW620, quantitative RT-PCR): ~8.6 fold
down regulation of H4c transcription sufficient to cause growth arrest ([3]; SW620 cells): 2 fold
effect on v-Myb transcription / expression (v-Myb): down regulated v-Myb transcription
effect on size of the cell nucleus (SW620 cells [4]): caused a similar enlargement of the cell nucleus

Cc1cc(C)n2c1C=C1C=CC(CCCCC(=O)N[C@H](CCNC(=O)c3nc(NC(=O)CCNC(=O)c4nc(NC(=O)c5nccn5C)cn4C)cn3C)C(=O)Nc3cc(C(=O)Nc4cc(C(=O)Nc5cc(C(=O)Nc6cc(C(=O)NCCC(=O)NCCCN(C)C)n(C)c6)n(C)c5)n(C)c4)n(C)c3)=[N+]1[B-]2(F)F [1R-bobipy]
entry into the nucleus (SW620 cell line): entered the nucleus

Cc1cc(C)n2c1C=C1C=CC(CCCCC(=O)N[C@@H](CCNC(=O)c3nc(NC(=O)CCNC(=O)c4nc(NC(=O)c5nccn5C)cn4C)cn3C)C(=O)Nc3cc(C(=O)Nc4cc(C(=O)Nc5cc(C(=O)Nc6cc(C(=O)NCCC(=O)NCCCN(C)C)n(C)c6)n(C)c5)n(C)c4)n(C)c3)=[N+]1[B-]2(F)F [1S-bodipy]
entry into the nucleus (SW620 cell line): entered the nucleus

CN(C)CCCNC(=O)CCNC(=O)c1cc(NC(=O)c2nc(NC(=O)CCNC(=O)c3cc(NC(=O)c4cc(NC(=O)[C@@H](CCNC(=O)c5cc(NC(=O)c6nc(NC(=O)CCNC(=O)c7cc(NC(=O)c8nccn8C)cn7C)cn6C)cn5C)NC(=O)CCCc5ccc(N(CCCl)CCCl)cc5)cn4C)cn3C)cn2C)cn1C [2-Chl, ImPy-βImPy-(R-2,4-Daba^Chl)-PyPyβImPy-βDp]
Cell morphology change [1]: no
Growth arrest [2]: no

CN(C)CCCNC(=O)CCNC(=O)c1cc(NC(=O)c2cc(NC(=O)c3cc(NC(=O)c4cc(NC(=O)[C@@H](CCNC(=O)c5cc(NC(=O)c6cc(NC(=O)c7cc(NC(=O)c8nccn8C)cn7C)cn6C)cn5C)NC(=O)CCCc5ccc(N(CCCl)CCCl)cc5)cn4C)cn3C)cn2C)cn1C [4-Chl]
Growth arrest [2]: cytotoxic
alkylation of the H4c PCR product on either strand [5]: fail to significantly alkylate
cytotoxicity [6]: highly cytotoxic

CN(C)CCCNC(=O)CCNC(=O)c1cc(NC(=O)c2cc(NC(=O)c3cc(NC(=O)c4cc(NC(=O)[C@@H](CCNC(=O)c5cc(NC(=O)c6nc(NC(=O)c7cc(NC(=O)c8nccn8C)cn7C)cn6C)cn5C)NC(=O)CCCc5ccc(N(CCCl)CCCl)cc5)cn4C)cn3C)cn2C)cn1C [5-Chl]
Growth arrest [2]: cytotoxic
alkylation of the H4c PCR product on either strand [5]: fail to significantly alkylate
cytotoxicity [6]: highly cytotoxic

CN(C)CCCNC(=O)CCNC(=O)c1cc(NC(=O)c2cc(NC(=O)c3cc(NC(=O)c4cc(NC(=O)[C@@H](CCNC(=O)c5nc(NC(=O)c6nc(NC(=O)c7cc(NC(=O)c8nccn8C)cn7C)cn6C)cn5C)NC(=O)CCCc5ccc(N(CCCl)CCCl)cc5)cn4C)cn3C)cn2C)cn1C [6-Chl]
Cell morphology change [1]: abolished the morphological change and growth arrest and no
Growth arrest [2]: abolished the morphological change and growth arrest; also recorded: slight

O=C(O)CCCc1ccc(N(CCCl)CCCl)cc1 [Chl, chlorambucil, reference compound]
Cell morphology change [1]: without effect
Growth arrest [2]: without effect
genes whose transcription was affected (SW620 cells [7]): a large number of genes
growth in soft agar (SW620 cells [8]): formed colonies
cytotoxicity ([6]; concentrations higher than 0.5 μM): cytotoxic at higher concentrations

CN(C)CCCNC(=O)CCNC(=O)c1cc(NC(=O)c2cc(NC(=O)c3cc(NC(=O)c4nc(NC(=O)C(CCNC(=O)c5cc(NC(=O)c6cc(NC(=O)c7nc(NC(=O)c8nccn8C)cn7C)cn6C)cn5C)NC(=O)CCCc5ccc(N(CCCl)CCCl)cc5)cn4C)cn3C)cn2C)cn1C (stereo not drawn) [ImImPyPy-(R-2,4-Daba^Chl)-ImPyPyPy-β-Dp]
alkylation of the H4c gene in vitro ([5]; sites of the form 5′-WGGWCN-3′): alkylate multiple sites in the H4c gene
Growth arrest (K562 [9]): causes growth and cell cycle arrest
cell cycle arrest (K562 [10]): causes growth and cell cycle arrest
effect on H4c gene transcription (H4c mRNA in K562): down regulates H4c gene transcription
